In assay [1] the test system is capsaicin-treated monkey tail (thermal allodynia). As to the kind of experiment: Capsaicin-induced thermal allodynia, tail withdrawal latency in monkey model. The assay is classed as in vivo. Conditions: 45 min after administration; for Tail Withdrawal Latency Mean ± SEM: capsaicin, cut-off 20 sec. On the procedure:
C) Because neuropatic pain is characterized by allodynia for various sensory modalities, also thermal allodynia was investigated in a monkey model where allodynia was induced by the topical application of […] of capsaicin to the surface of the tail. Allodynia was assessed by the latency for withdrawal of the tail following immersion of the tail into water with non-noxious temperatures of either 38° C. or 42° C. (cut-off latency of 20 sec).

Assay [2] relates to streptozotocin diabetic rats (tactile allodynia). As to the kind of experiment: Tactile allodynia (Von Frey filaments) in streptozotocin diabetic rats. The assay is classed as in vivo, rat. As for the experimental part:
A) Insulin deficient diabetes was induced in rats by a single injection of streptozotocin (50 mg/kg, intraperitoneally). After having confirmed the development of diabetes by established hyperglycemia, determined in blood samples taken from the rats, asimadoline was administered subcutaneously at doses of 1 mg/kg, 5 mg/kg and 15 mg/kg. For comparison, gabapentin, the most recent treatment for diabetic neuropathy, at 50 mg/kg was included. To determine mechanical threshold (tactile allodynia) for foot withdrawal, a series of Von Frey filaments (minimum 0.25 g; maximum 15 g) was applied in sequence to the plantar surface of the right hindpaw with a pressure that causes the filament to buckle, starting with a filament of a buckling weight of 2 g. Absence of a response after 5 seconds was regarded a negative response, and the next heavier filament was applied. Lifting of the paw was recorded as a positive response, and the next lightest filament were applied. This sequence was continued until four measurements have been made after an initial change in the behavior or until five consecutive negative (given the score of 15 g) or four positive (score of 0.25 g) scores were obtained. The resulting sequence of positive and negative scores was used to determine the 50% response threshold.
That the beneficial effects are indeed due to the opioid mechanism of asimadoline can also be seen in Table 1.

Assay [3] concerns L5/L6 spinal nerve ligated rats (tactile allodynia). As to the kind of experiment: Tactile allodynia (Von Frey filaments) in rats with L5 and L6 spinal nerve ligation. It counts as in vivo, rat. The text has this:
B) Neuropathic pain was induced by surgical […], i.e. the L5 and L6 spinal nerves on one side were tightly ligated in anesthetized rats. After 15 days of recovery, a series of Von Frey filaments (0.4- 15 g) was applied in sequence to the plantar surface of the ligated hind paw to determine the 50% mechanical threshold for foot withdrawal as described before.

For `CN(C(=O)C(c1ccccc1)c1ccccc1)[C@H](CN1CC[C@H](O)C1)c1ccccc1.Cl` [Asimadoline, N-methyl-N-[(1S)-1-phenyl-2-((3S)-3-hydroxypyrrolidin-1-yl)ethyl]-2,2-diphenylacetamide, hydrochloride], the “Tail Withdrawal Latency Mean ± SEM” value in assay [1] (0.01 mg/kg s.c., water 38° C.) stood at 8.0 ± 4.5 s; in assay [1] (0.01 mg/kg s.c., water 42° C.), 4.5 ± 2.5 s; in assay [1] (0.032 mg/kg s.c., water 38° C.) it was 19.6 ± 0.4 s; in assay [1] (0.032 mg/kg s.c., water 42° C.) it was 12.8 ± 4.2 s. Further, the “effect on thermal allodynia (in words)” value in assay [1] (highest dose (0.032 mg/kg s.c.), 38° C. condition) is given as “nearly completely abolished thermal allodynia”. Further, the “50% Response Threshold Mean ± SEM” value is 2 ± 0.2 g in assay [2] (diabetic rats, 1 mg/kg s.c., 3 h after administration); 6 ± 2.0 g in assay [2] (diabetic rats, 5 mg/kg s.c., 3 h after administration); 9 ± 1.7 g in assay [2] (diabetic rats, 15 mg/kg s.c., 3 h after administration); 3 ± 1.0 g in assay [2] (diabetic rats, nor-BNI 100 μg i.pl. + Asimadoline 15 mg/kg s.c.); 6.4 ± 0.5 g in assay [3] (1 mg/kg p.o., 2 h after administration); 10.1 ± 0.6 g in assay [3] (3 mg/kg p.o., 2 h after administration). Moreover, the “50% Response Threshold Mean ± SEM” value in assay [3] (10 mg/kg p.o., 2 h after administration) worked out at 12.0 ± 0.4 g. Also, the “effect on tactile allodynia (in words)” value in assay [2] (diabetic rats, highest dose (15 mg/kg s.c.), 3 h after administration) is recorded as “nearly completely abolished tactile allodynia”; in assay [3] (highest dose (10 mg/kg p.o.), 2 h after administration), “nearly completely abolished tactile allodynia”. The “anti-allodynic effect after intraplantar injection of kappa antagonist nor-BNI (in words)” value in assay [2] (diabetic rats, highest dose of asimadoline + nor-BNI i.pl.) is given as “completely abolished”.

As for `NCC1(CC(=O)O)CCCCC1` [Gabapentin, reference compound], the “50% Response Threshold Mean ± SEM” value in assay [2] (diabetic rats, 50 mg/kg s.c.) turned out to be 10 ± 1.9 g; in assay [3] (100 mg/kg p.o.), 12.8 ± 1.6 g.

For the molecule `Oc1ccc2c3c1O[C@H]1c4[nH]c5c(c4C[C@@]4(O)[C@@H](C2)N(CC2CC2)CC[C@]314)C[C@@]1(O)[C@H]2Cc3ccc(O)c4c3[C@@]1(CCN2CC1CC1)[C@H]5O4` [nor-BNI, nor-binaltorphimine, reference compound], in assay [2] (non-diabetic control rats, nor-BNI 100 μg i.pl.), the “50% Response Threshold Mean ± SEM” value is on record as 13 ± 1.6 g.
